Data published in ChEMBL document CHEMBL4507293 (2021).

Assays:
[1] = molecular target: Serine/threonine-protein kinase 24 (Homo sapiens) (UniProt Q9Y6E0); settings: Compound concentration 100.0 nM
[2] = molecular target: Serine/threonine-protein kinase MAK (Homo sapiens) (UniProt P20794); settings: Compound concentration 100.0 nM
[3] = molecular target: Casein kinase I isoform gamma-2 (Homo sapiens) (UniProt P78368); settings: Compound concentration 100.0 nM
[4] = molecular target: STE20-like serine/threonine-protein kinase (Homo sapiens) (UniProt Q9H2G2); settings: Compound concentration 100.0 nM
[5] = tested on: Hepatocyte growth factor receptor (Homo sapiens), P08581 [M1250T]; settings: Compound concentration 100.0 nM
[6] = molecular target: Mu-type opioid receptor (Homo sapiens) (UniProt P35372); settings: Compound concentration 10.0 uM
[7] = molecular target: cAMP-dependent protein kinase catalytic subunit PRKX (Homo sapiens) (UniProt P51817); settings: Compound concentration 100.0 nM
[8] = molecular target: Hepatocyte growth factor receptor (Homo sapiens) (UniProt P08581); settings: Compound concentration 100.0 nM
[9] = molecular target: Ribosomal protein S6 kinase alpha-2 (Homo sapiens) (UniProt Q15349); settings: Compound concentration 100.0 nM
[10] = molecular target: Calcium/calmodulin-dependent protein kinase type 1D (Homo sapiens) (UniProt Q8IU85); settings: Compound concentration 100.0 nM
[11] = molecular target: 3',5'-cyclic-AMP phosphodiesterase 4A (Homo sapiens, UniProt P27815); test: Biochemical assay (PDE4A)
[12] = molecular target: Serine/threonine-protein kinase pim-1 (Homo sapiens) (UniProt P11309); settings: Compound concentration 100.0 nM
[13] = molecular target: Macrophage colony-stimulating factor 1 receptor (Homo sapiens) (UniProt P07333); settings: Compound concentration 100.0 nM
[14] = molecular target: T1, Muscarinic acetylcholine receptor M4 (Homo sapiens) (UniProt P08173); settings: Compound concentration 10.0 uM
T1 sequence (whole entry): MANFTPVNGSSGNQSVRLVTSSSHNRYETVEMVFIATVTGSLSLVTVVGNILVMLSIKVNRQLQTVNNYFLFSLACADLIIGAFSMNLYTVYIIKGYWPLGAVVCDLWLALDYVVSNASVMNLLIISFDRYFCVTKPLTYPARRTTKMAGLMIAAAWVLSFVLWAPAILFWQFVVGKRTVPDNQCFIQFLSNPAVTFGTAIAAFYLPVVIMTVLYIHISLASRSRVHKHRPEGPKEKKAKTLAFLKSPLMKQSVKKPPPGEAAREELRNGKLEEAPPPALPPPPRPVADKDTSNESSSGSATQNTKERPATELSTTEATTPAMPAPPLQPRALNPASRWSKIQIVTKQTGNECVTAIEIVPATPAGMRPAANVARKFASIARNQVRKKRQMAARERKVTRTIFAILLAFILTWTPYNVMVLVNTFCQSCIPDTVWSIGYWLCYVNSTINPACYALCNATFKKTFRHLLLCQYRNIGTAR

[15] = molecular target: Serine/threonine-protein kinase MRCK beta (Homo sapiens) (UniProt Q9Y5S2); settings: Compound concentration 100.0 nM
[16] = molecular target: Protein kinase C eta type (Homo sapiens) (UniProt P24723); settings: Compound concentration 100.0 nM
[17] = molecular target: Dual specificity protein kinase CLK3 (Homo sapiens) (UniProt P49761); settings: Compound concentration 100.0 nM
[18] = molecular target: Serine/threonine-protein kinase LATS2 (Homo sapiens) (UniProt Q9NRM7); settings: Compound concentration 100.0 nM
[19] = molecular target: Proto-oncogene tyrosine-protein kinase ROS (Homo sapiens) (UniProt P08922); settings: Compound concentration 100.0 nM
Chain of Proto-oncogene tyrosine-protein kinase ROS (Homo sapiens) (P08922 whole entry): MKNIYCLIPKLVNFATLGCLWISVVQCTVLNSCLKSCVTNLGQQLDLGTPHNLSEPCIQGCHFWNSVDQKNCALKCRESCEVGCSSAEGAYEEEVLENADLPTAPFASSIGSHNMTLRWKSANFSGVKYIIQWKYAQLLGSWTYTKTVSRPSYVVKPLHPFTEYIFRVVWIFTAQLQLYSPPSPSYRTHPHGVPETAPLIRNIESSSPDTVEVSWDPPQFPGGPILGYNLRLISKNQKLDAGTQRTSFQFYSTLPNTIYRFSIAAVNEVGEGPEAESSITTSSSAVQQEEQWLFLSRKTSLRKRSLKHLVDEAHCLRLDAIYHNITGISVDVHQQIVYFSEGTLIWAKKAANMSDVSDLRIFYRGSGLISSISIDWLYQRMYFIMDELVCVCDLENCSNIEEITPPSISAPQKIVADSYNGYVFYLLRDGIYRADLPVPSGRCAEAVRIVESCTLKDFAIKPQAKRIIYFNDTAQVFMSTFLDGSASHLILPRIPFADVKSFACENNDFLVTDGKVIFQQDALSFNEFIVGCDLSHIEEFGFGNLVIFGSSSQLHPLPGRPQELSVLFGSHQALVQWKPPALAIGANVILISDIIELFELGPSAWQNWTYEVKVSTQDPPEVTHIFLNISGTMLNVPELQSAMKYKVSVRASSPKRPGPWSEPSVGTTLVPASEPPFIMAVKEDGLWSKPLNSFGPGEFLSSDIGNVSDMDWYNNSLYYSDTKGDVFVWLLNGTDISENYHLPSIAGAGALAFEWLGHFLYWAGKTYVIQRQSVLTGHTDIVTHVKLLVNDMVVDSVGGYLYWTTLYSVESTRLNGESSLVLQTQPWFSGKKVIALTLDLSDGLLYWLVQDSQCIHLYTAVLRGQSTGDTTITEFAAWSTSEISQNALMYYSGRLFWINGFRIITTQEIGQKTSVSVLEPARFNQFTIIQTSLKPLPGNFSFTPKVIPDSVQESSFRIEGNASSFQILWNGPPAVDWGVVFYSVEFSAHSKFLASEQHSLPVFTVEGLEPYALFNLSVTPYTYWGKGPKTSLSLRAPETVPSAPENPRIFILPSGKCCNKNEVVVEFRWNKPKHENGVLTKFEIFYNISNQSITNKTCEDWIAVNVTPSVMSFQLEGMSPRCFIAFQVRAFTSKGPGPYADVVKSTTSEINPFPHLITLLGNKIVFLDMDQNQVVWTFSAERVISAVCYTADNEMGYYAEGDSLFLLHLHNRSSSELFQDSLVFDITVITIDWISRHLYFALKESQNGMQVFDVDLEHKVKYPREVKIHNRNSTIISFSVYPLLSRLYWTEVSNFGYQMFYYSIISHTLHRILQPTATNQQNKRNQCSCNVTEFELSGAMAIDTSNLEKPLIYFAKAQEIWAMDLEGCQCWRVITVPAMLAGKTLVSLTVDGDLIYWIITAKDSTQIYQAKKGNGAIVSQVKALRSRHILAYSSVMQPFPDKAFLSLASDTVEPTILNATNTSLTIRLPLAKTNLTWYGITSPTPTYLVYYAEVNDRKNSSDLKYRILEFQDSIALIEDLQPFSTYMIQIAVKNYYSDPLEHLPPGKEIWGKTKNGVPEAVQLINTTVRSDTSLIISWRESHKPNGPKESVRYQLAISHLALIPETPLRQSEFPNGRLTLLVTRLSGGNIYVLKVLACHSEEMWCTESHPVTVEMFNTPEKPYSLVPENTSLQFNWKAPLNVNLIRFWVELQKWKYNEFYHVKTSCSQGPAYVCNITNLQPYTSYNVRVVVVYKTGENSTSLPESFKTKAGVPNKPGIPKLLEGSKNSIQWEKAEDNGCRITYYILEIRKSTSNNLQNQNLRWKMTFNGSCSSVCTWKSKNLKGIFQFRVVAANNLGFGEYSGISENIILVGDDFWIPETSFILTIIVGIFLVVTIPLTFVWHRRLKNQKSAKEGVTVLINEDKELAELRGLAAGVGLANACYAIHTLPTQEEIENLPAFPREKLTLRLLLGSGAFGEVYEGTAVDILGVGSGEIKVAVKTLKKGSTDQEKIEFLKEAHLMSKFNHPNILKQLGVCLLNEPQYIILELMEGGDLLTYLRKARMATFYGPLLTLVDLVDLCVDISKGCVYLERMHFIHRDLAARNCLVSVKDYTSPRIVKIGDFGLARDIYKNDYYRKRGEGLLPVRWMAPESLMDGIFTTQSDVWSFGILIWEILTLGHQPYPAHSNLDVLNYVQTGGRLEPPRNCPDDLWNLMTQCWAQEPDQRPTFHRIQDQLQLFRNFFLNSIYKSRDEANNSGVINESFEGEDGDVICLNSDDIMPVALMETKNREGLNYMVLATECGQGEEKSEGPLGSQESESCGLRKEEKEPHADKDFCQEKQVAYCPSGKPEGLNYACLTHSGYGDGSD

[20] = molecular target: Cyclin-dependent kinase 15 (Homo sapiens) (UniProt Q96Q40); settings: Compound concentration 100.0 nM
[21] = molecular target: Calcium/calmodulin-dependent protein kinase type II subunit beta (Homo sapiens) (UniProt Q13554); settings: Compound concentration 100.0 nM
[22] = molecular target: Cyclin-dependent kinase-like 5 (Homo sapiens) (UniProt O76039); settings: Compound concentration 100.0 nM
[23] = molecular target: Homeodomain-interacting protein kinase 1 (Homo sapiens) (UniProt Q86Z02); settings: Compound concentration 100.0 nM
[24] = molecular target: Serine/threonine-protein kinase WNK2 (Homo sapiens) (UniProt Q9Y3S1); settings: Compound concentration 100.0 nM
[25] = molecular target: cGMP-dependent protein kinase 1 (Homo sapiens) (UniProt Q13976); settings: Compound concentration 100.0 nM
[26] = molecular target: Mitogen-activated protein kinase kinase kinase 12 (Homo sapiens) (UniProt Q12852); settings: Compound concentration 100.0 nM
[27] = tested on: Phosphatidylinositol 4,5-bisphosphate 3-kinase catalytic subunit alpha isoform (Homo sapiens), P42336 [H1047Y]; settings: Compound concentration 100.0 nM
[28] = tested on: Epidermal growth factor receptor (Homo sapiens), P00533 [UNDEFINED MUTATION]; settings: Compound concentration 100.0 nM
Chain of Epidermal growth factor receptor (Homo sapiens), P00533 [UNDEFINED MUTATION] (P00533 whole entry, looked up, change not shown): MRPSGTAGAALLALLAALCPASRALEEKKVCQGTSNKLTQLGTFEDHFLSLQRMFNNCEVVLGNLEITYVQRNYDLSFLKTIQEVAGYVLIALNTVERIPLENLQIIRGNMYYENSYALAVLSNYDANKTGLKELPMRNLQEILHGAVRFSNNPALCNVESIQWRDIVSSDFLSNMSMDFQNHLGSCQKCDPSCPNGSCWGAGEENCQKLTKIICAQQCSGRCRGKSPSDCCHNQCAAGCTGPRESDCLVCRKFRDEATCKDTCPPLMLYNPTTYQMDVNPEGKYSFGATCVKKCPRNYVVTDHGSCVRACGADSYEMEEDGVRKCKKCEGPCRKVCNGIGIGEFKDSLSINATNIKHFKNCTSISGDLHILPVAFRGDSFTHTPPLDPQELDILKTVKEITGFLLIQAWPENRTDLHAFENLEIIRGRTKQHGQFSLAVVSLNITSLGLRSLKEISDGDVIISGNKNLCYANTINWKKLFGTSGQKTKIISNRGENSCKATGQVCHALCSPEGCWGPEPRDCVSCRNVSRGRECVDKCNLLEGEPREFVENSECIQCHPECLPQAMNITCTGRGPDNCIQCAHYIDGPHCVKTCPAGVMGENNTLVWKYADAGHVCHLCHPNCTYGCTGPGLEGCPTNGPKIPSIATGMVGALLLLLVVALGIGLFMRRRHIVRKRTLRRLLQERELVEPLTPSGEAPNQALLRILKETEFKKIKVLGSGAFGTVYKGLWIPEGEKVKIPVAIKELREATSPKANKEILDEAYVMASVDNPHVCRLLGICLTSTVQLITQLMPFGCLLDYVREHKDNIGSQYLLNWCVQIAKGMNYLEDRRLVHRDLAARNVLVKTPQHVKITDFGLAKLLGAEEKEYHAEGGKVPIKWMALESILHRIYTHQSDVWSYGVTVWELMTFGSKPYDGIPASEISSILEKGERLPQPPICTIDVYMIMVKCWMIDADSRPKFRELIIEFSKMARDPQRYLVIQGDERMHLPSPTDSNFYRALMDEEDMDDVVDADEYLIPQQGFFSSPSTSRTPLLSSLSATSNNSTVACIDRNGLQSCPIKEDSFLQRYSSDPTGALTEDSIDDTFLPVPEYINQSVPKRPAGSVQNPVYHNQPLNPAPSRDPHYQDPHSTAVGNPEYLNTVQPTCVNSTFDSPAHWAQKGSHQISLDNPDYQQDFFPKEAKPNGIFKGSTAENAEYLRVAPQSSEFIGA

[29] = molecular target: Serine/threonine-protein kinase mTOR (Homo sapiens) (UniProt P42345); settings: Compound concentration 100.0 nM
[30] = molecular target: Platelet-derived growth factor receptor alpha (Homo sapiens) (UniProt P16234); settings: Compound concentration 100.0 nM
[31] = tested on: Tyrosine-protein kinase ABL1 (Homo sapiens), P00519 [F317I]; settings: Compound concentration 100.0 nM
[32] = molecular target: SRSF protein kinase 1 (Homo sapiens) (UniProt Q96SB4); settings: Compound concentration 100.0 nM
Chain of SRSF protein kinase 1 (Homo sapiens) (Q96SB4 whole entry): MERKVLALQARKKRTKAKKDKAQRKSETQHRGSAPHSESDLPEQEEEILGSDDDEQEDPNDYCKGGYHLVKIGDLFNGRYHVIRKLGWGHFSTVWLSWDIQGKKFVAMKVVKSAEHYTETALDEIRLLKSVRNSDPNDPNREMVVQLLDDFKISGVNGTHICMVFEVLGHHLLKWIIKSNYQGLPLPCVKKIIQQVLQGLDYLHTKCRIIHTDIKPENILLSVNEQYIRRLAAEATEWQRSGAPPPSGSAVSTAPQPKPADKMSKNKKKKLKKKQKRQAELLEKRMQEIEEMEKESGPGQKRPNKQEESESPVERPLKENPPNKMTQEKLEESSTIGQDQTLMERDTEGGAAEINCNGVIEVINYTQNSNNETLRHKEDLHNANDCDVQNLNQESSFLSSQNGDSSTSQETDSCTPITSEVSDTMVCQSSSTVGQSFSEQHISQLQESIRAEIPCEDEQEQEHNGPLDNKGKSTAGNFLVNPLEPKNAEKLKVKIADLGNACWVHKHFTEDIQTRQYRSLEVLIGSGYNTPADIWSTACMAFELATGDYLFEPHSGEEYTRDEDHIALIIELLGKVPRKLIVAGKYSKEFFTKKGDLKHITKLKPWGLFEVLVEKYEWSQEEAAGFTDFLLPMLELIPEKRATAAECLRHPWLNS

[33] = molecular target: MAP kinase-interacting serine/threonine-protein kinase 2 (Homo sapiens) (UniProt Q9HBH9); settings: Compound concentration 100.0 nM
Chain of MAP kinase-interacting serine/threonine-protein kinase 2 (Homo sapiens) (Q9HBH9 whole entry, looked up): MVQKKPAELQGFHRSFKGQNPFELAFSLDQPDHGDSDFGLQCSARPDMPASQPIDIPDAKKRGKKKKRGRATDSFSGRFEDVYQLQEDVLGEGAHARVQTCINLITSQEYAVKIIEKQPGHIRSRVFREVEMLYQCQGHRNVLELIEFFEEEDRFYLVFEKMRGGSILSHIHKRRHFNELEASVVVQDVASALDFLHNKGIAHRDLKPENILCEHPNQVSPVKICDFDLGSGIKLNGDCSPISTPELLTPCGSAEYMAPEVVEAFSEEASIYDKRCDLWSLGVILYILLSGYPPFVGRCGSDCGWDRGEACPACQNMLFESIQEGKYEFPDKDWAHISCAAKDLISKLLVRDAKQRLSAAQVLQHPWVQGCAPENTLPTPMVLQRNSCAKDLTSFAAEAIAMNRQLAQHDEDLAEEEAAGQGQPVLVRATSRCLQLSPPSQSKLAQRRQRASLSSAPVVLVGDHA

[34] = molecular target: Cyclin-dependent kinase 5 (Homo sapiens) (UniProt Q00535); settings: Compound concentration 100.0 nM
[35] = tested on: Epidermal growth factor receptor (Homo sapiens), P00533 [UNDEFINED MUTATION]; settings: Compound concentration 100.0 nM; remark: listed apart in the source
[36] = molecular target: Ribosomal protein S6 kinase alpha-4 (Homo sapiens) (UniProt O75676); settings: Compound concentration 100.0 nM
[37] = molecular target: Testis-specific serine/threonine-protein kinase 3 (Homo sapiens) (UniProt Q96PN8); settings: Compound concentration 100.0 nM
[38] = molecular target: Vascular endothelial growth factor receptor 2 (Homo sapiens) (UniProt P35968); settings: Compound concentration 100.0 nM

Chain of Serine/threonine-protein kinase 24 (Homo sapiens) (Q9Y6E0 whole entry, looked up): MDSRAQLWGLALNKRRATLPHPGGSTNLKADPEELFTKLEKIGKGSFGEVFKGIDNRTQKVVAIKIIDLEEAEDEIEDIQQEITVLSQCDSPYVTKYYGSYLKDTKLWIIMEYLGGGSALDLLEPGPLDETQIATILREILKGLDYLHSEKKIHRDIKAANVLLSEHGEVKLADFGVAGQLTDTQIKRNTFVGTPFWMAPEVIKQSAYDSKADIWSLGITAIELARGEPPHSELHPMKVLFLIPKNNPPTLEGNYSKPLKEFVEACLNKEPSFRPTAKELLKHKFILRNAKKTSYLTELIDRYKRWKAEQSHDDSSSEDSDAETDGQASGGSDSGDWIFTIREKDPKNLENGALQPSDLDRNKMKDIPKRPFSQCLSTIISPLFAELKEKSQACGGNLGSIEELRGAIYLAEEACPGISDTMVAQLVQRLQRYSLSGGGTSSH

CC(C)CC(=O)N1CCc2nc(-c3ccc(Br)cc3)nc(N(C)Cc3ccccc3)c2C1 [THPP-1-NC] showed a residual activity [1] of 100%, a residual activity [2] of 99% and a residual activity [3] of 86%. For the same compound, the residual activity [4] was 100%, the residual activity [5] was 70% and the inhibition [6] was -0.75%. It also gave a residual activity [7] of 100%, a residual activity [8] of 99% and a residual activity [9] of 100%. For the same compound, the residual activity [10] was 100%, the Ki [11] was 9.83 µM (not active) and the residual activity [12] was 100%. It also gave a residual activity [13] of 100%, an inhibition [14] of 3.58% and a residual activity [15] of 99%. For the same compound, the residual activity [16] was 94%, the residual activity [17] was 100% and the residual activity [18] was 94%. The residual activity [19] was 100%, the residual activity [20] was 100% and the residual activity [21] was 100%. The residual activity [22] was 100%, the residual activity [23] was 64% and the residual activity [24] was 100%. The residual activity [25] was 74%, the residual activity [26] was 90% and the residual activity [27] was 76%. It also gave a residual activity [28] of 100%, a residual activity [29] of 89% and a residual activity [30] of 98%. It also gave a residual activity [31] of 100%, a residual activity [32] of 99% and a residual activity [33] of 73%. For the same compound, the residual activity [34] was 100%, the residual activity [35] was 100% and the residual activity [36] was 74%. It also gave a residual activity [37] of 100% and a residual activity [38] of 100%.
For COCCOc1nc(-c2ccc(Cl)nc2)nc2c1CN(C(=O)c1ncn3ccccc13)CC2 [THPP-1], the residual activity [1] was 100%, the residual activity [2] was 100% and the residual activity [3] was 94%. The residual activity [4] was 100%, the residual activity [5] was 71% and the inhibition [6] was -0.32%. It also gave a residual activity [7] of 100%, a residual activity [8] of 100% and a residual activity [9] of 100%. For the same compound, the residual activity [10] was 100%, the Ki [11] was 5.9 µM (not active) and the residual activity [12] was 100%. It also gave a residual activity [13] of 100%, an inhibition [14] of 2% and a residual activity [15] of 100%. The residual activity [16] was 97%, the residual activity [17] was 100% and the residual activity [18] was 68%. It also gave a residual activity [19] of 100%, a residual activity [20] of 100% and a residual activity [21] of 100%. For the same compound, the residual activity [22] was 100%, the residual activity [23] was 90% and the residual activity [24] was 100%. It also gave a residual activity [25] of 87%, a residual activity [26] of 97% and a residual activity [27] of 79%. The residual activity [28] was 100%, the residual activity [29] was 97% and the residual activity [30] was 100%. For the same compound, the residual activity [31] was 100%, the residual activity [32] was 86% and the residual activity [33] was 100%. For the same compound, the residual activity [34] was 100%, the residual activity [35] was 100% and the residual activity [36] was 86%. The residual activity [37] was 100% and the residual activity [38] was 100%.
